Reference: patent publication US20070191627A1, “Stilbene derivatives and their use in medicaments” (priority 2003, published 2007)
Read-outs that look alike come from different tables or passages of the source.

Key:
[1] = tested on: HL-60 human promyelocyte leukemia cells; assay: Growth inhibition assay in HL-60 cells (72 h, cell count); type: cell-based; settings: for IC50: Homo sapiens
Method: The human promyelocyte leukemia cell line HL-60 was purchased from the ATCC (American Type Culture Collection, Rockville, Md., USA). The cells were cultured in RPMI 1640 medium with 10% heat-inactivated fetal calf serum (FCS) (GIBCO, Grand Island Biological Co., Grand Island, N.Y., USA) and with 1% penicillin/streptomycin in a humidified atmosphere with 5% CO2.
The cell numbers were determined by means of a microcell counter CC-108 (Sysmex, Kobe, Japan). For the tests, cells in the logarithmic growth phase were used.
Logarithmically-growing HL-60 cells were prepared in a density of 0.1×10^6 cells/ml in tissue culture flasks and incubated with various concentrations of the stilbene derivatives to be examined. After 72 hours, the cells were counted by means of the microcell counter. The viability of the cells was determined by means of trypan blue staining. Numbers of viable cells were calculated as results.
After 72 hours, the cells were counted by means of the microcell counter. The viability of the cells was determined by means of trypan blue staining. Numbers of viable cells were calculated as results.

COX 1 = molecular target: T1, COX 1 (Homo sapiens, UniProt P23219); assay: COX (human) inhibitor screening assay, COX 1; type: biochemical
T1 construct: purchased IBL Products Company, Hamburg, Germany

COX 2 = molecular target: T2, COX 2 (Homo sapiens, UniProt P35354); assay: COX (human) inhibitor screening assay, COX 2; type: biochemical; settings: for COX2/COX1 Ratio: ratio of COX 2 IC50 to COX 1 IC50
T2 construct: purchased IBL Products Company, Hamburg, Germany
T2 sequence (P35354 18-604): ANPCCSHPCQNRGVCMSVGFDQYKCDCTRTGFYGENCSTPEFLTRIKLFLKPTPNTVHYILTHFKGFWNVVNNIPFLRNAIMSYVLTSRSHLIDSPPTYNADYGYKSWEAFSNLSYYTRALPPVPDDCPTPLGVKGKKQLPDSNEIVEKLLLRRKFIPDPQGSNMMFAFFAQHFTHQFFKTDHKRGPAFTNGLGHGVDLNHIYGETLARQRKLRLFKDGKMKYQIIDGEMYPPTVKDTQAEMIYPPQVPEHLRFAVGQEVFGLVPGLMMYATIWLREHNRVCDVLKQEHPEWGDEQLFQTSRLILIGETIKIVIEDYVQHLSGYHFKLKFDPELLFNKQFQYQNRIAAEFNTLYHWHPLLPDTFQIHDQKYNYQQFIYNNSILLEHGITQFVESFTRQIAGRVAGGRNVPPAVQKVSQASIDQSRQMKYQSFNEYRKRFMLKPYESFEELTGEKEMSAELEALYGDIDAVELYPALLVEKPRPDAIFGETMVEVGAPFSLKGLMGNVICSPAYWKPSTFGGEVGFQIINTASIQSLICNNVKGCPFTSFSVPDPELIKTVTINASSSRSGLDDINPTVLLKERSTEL

HL-60 cells [2] = assay: Analysis of intracellular dNTP pools by HPLC in HL-60 cells; type: cell-based, human
Method: (§1) The analysis of the intracellular dNTP concentrations was carried out according to the method of Garrett and Santi (Garrett, C.; Santi, D. V. A Rapid and Sensitive High-Pressure Liquid Chromatography Assay for Deoxyribonucleoside Triphosphates in Cell Extracts. Anal Biochem. 1979 Nov. 1; 99(2): 268-73.)
(§2) The action of hexahydroxystilbene (“M8”) on the intracellular dNTP concentrations in HL-60 cells was examined. The study was performed as described above. The cells were incubated with 6.25, 12.5 and 25 μM of hexahydroxystilbene, and then the dNTP pools were determined. […] The dATP concentrations dropped during treatment with 12.5 and 25 μM of hexahydroxystilbene to 27 and 41% of the starting values. The depletion of the dATP pools was especially impressive in the case of HT-29 human colon tumor cells; the dATP values dropped there as early as after treatment with 4 μM of the substance in an average of 1.5% of the starting values. […] The action of the substance can also be clarified by this impressive imbalance of the dNTP pools that are precursors of the DNA synthesis. The results of the experiment with HL-60 cells are plotted in FIG. 3.

[3] = tested on: HT-29 human colon tumor cells; assay: Analysis of intracellular dATP pools in HT-29 cells; type: cell-based; settings: 4 μM, HT-29, average
Method: as §1, §2

HL-60 cells [4] = assay: Apoptosis induction, Hoechst 33258/propidium iodide double staining in HL-60 cells; type: cell-based, human; settings: 24 hours
Method: Then, the cells were treated for one hour with Hoechst 33258 (HO, Sigma, St. Louis, Mo., USA) and propidium iodide (PI, Sigma, St. Louis, Mo., USA) (5 μg/ml and 2 μg/ml). Then, the cells were photographed by means of a fluorescence microscope, and the cells were divided morphologically into early apoptotic, late apoptotic and necrotic cells. […] The results are plotted in FIG. 4.

HL-60 cells [5] = assay: Cell cycle distribution by FACS in HL-60 cells; type: cell-based, human; settings: 24 hours
Method: HL-60 cells were incubated in the presence of hexahydroxystilbene. After 24 hours, the cells were washed, centrifuged and fixed in alcohol. Then, […] and examined by means of FACS analysis. Then, the cell cycle phase distribution was calculated.

PC-3 = assay: Clonogenic test series (7 d) in PC-3 prostate cancer cells; type: cell-based; settings: Homo sapiens, PC-3, 168 h
LNCaP = assay: Clonogenic test series (7 d) in LNCaP prostate cancer cells; type: cell-based; settings: Homo sapiens, 168 h, LNCaP cells respond to 5-alpha-dihydrotestosterone
DU-145 = assay: Clonogenic test series (7 d) in DU-145 prostate cancer cells; type: cell-based; settings: Homo sapiens, DU-145, 168 h
[6] = HL-60, read-out: IC50 (50% inhibition of cell growth), HL-60, 2nd determination series, 72 hours of incubation
[7] = HL-60, 1st determination series, 72 hours, read-out: IC50 (μM), inhibition of growth of HL-60 human promyelocyte leukemia cells
[8] = HL-60, Table 3, 72 h, read-out: Growth inhibition (72 h) HL-60

T1 sequence (P23219 24-599): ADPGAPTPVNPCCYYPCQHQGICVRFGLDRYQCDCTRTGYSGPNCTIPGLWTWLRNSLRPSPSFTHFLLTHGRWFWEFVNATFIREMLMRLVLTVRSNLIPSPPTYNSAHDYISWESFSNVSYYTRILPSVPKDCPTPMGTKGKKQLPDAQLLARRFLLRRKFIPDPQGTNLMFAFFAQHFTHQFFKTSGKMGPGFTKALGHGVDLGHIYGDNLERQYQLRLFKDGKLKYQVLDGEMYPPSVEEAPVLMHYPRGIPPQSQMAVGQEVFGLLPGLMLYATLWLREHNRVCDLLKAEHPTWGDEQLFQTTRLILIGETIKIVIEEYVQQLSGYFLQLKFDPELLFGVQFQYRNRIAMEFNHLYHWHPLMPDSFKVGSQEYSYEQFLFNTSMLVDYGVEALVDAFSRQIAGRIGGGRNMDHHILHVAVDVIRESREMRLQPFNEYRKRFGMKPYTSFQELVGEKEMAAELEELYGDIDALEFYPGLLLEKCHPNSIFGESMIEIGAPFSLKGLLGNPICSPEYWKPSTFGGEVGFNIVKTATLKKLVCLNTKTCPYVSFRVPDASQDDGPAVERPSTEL

SMILES | IC50 (COX 1) [µM] | IC50 (COX 2) [µM] | IC50 [1, 7] [µM] | IC50 [1, 8] [µM] | IC50 (PC-3) [µM] | IC50 (LNCaP) [µM] | IC50 (DU-145) [µM] | COX2/COX1 Ratio (COX 2) | other results
O=C1O[C@H]([C@@H](O)CO)C(O)=C1O [Vitamin C, reference compound] | – | – | – | – | – | – | – | – | Action on cell growth of HL-60, in words ([1]; 50 or 100 μM, alone): no action on the cell growth
Oc1cc(C=Cc2cc(O)c(O)c(O)c2)cc(O)c1O [M8, 3,3′,4,4′,5,5′-Hexahydroxystilbene] | 0.5 | 0.001 | 4 | 4 | 2.5 | 3.4 | 25 | – | IC50 [1, 6]: 6.25 µM; IC50 ([1]; HL-60, adding 50 or 100 μM of vitamin C, read-out: IC50 of growth inhibition, HL-60, with added vitamin C): 2 µM; dCTP pools, % of the control values (HL-60 cells [2]; 6.25 μM): 110%; dTTP pools, % of the starting values (HL-60 cells [2]; 6.25 μM): 84%; dATP concentrations, % of the starting values (HL-60 cells [2]; 12.5 μM): 27%; dCTP pools, % of the control values (HL-60 cells [2]; 12.5 μM): 137%; dTTP pools, % of the starting values (HL-60 cells [2]; 12.5 μM): 72%; dATP concentrations, % of the starting values (HL-60 cells [2]; 25 μM): 41%; dCTP pools, % of the control values (HL-60 cells [2]; 25 μM): 199%; dTTP pools, % of the starting values (HL-60 cells [2]; 25 μM): 27%; dATP values, % of the starting values [3]: 1.5%; Cells with induction of apoptosis (HL-60 cells [4]; 6.25 μM): 68.5%; Apoptosis induction compared with resveratrol, in words (HL-60 cells [4]): induced apoptosis in these cells in the case of significantly lower concentrations than resveratrol; Cell cycle distribution, G2-M phase, in words (HL-60 cells [5]): a depletion of cells resulted in the G2-M phase; Cell cycle distribution, S phase, in words (HL-60 cells [5]): stopped the cells in S phase
COc1cc(C=Cc2ccc(OC)c(OC)c2)cc(OC)c1 [M5A, 3,3′,4′,5-Tetramethoxystilbene] | – | – | – | 25 | 35 | 6.25 | 30 | – | –
COc1ccc(C=Cc2cc(OC)c(OC)c(OC)c2)cc1 [M4, 3,4,4′,5-Tetramethoxystilbene] | – | – | – | 20 | 3 | 0.4 | 0.4 | – | –
Oc1ccc(C=Cc2cc(O)cc(O)c2)cc1 [Resveratrol, 3,4′,5-Trihydroxystilbene, reference compound] | – | – | 12 | 12 | 16 | 5 | 10 | – | IC50 [1, 6]: 12 µM
COc1cc(C=Cc2cc(OC)c(OC)c(OC)c2)cc(OC)c1OC [M3, 3,3′,4,4′,5,5′-Hexamethoxystilbene] | 10 | 0.5 | > 100 | > 100 | 5.5 | 37 | 12.5 | 0.05 | –
Oc1ccc(C=Cc2cc(O)c(O)c(O)c2)cc1 [M9, 3,4,4′,5-Tetrahydroxystilbene] | 5 | 0.01 | 9 | 9 | 8 | 9.5 | 30 | 0.002 | –
Oc1cc(O)cc(C=Cc2ccc(O)c(O)c2)c1 [M10, 3,3′,4′,5-Tetrahydroxystilbene] | 5 | 0.005 | 9 | 9 | 18 | 33 | 58 | – | –

Continued, in another order:

IC50 (COX 1) [µM] | IC50 (COX 2) [µM] | IC50 [1, 7] [µM] | IC50 [1, 8] [µM] | IC50 (PC-3) [µM] | IC50 (LNCaP) [µM] | IC50 (DU-145) [µM] | COX2/COX1 Ratio (COX 2) | SMILES | other results
– | – | – | 5 | 3 | 6.25 | 6 | – | COc1cccc(C=Cc2cc(OC)cc(OC)c2)c1 [M5, 3,3′,5-Trimethoxystilbene] | –
0.01 | < 0.001 | 12.5 | 12.5 | 16 | 84 | 17 | <0.1 | Oc1cc(O)cc(C=Cc2cc(O)cc(O)c2)c1 [M6, 3,3′,5,5′-Tetrahydroxystilbene] | –
– | – | – | > 100 | 35 | 21 | 25 | – | COc1cc(C=Cc2cc(OC)cc(OC)c2)cc(OC)c1 [M1, 3,3′,5,5′-Tetramethoxystilbene] | –
0.01 | 0.005 | 10 | 10 | 5 | 7.5 | 23 | 0.5 | Oc1cc(O)cc(C=Cc2cc(O)c(O)c(O)c2)c1 [M7, 3,3′,4,5,5′-Pentahydroxystilbene] | –
10 | 0.6 | 25 | 25 | 21 | > 100 | 68 | 0.06 | COc1cc(C=Cc2cc(OC)c(OC)c(OC)c2)cc(OC)c1 [M2, 3,3′,4,5,5′-Pentamethoxystilbene] | –
